These results are taken from US11730720B2, “ALK5 inhibitors” (THERAVANCE BIOPHARMA R&D IP, LLC, priority 2018, dated 2023).

The target in test [1] is T1, recombinant human ALK5 (TGF-βR1) protein (Homo sapiens, UniProt P36897).
T1 construct: purchased Life Technologies PR9075A
T1 sequence (P36897 34-503): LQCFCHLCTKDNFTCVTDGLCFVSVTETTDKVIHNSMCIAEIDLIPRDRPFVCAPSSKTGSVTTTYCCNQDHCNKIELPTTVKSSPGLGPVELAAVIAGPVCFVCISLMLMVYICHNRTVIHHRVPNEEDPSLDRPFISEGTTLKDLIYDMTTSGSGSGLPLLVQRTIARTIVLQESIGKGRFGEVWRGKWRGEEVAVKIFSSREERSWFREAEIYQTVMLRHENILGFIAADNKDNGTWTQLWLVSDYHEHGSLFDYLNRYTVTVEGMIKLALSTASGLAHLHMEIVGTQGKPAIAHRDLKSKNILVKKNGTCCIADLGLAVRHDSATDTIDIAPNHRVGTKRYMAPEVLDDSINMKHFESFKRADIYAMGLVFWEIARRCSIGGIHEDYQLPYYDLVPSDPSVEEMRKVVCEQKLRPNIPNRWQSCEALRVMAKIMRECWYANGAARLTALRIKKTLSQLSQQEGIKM
As to the kind of experiment: Biochemical ALK5 (TGF-βR1) assay to measure pKi (LANCE Ultra ULight kinase assay). The conditions noted are these: apparent pKi, converted from pIC50 using the Cheng-Prusoff equation. In outline:
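TR-FRET kinase format: compound dose range 10 μM–25 pM equilibrated 60 min with human ALK5 and ULight-labelled topoisomerase 2α peptide in HEPES/MgCl2 buffer pH 7.5 with DTT. Reaction started with ATP (125 μM stock, 5× final), 60 min at 37° C, stopped with EDTA/Eu-anti-phospho antibody; pKi derived from pIC50 via Cheng-Prusoff.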
For orientation: TR-FRET usually uses a lanthanide donor and a delayed reading to cut background.

Test [2] has as its system TGF-β-stimulated SMAD3 phosphorylation in BEAS-2B cells. The test can be described thus: Cellular ALK5 potency assay, inhibition of TGF-β stimulated pSMAD3 formation in BEAS-2B cells. It counts as cell-based. As to conditions: Homo sapiens, inhibition of TGF-β (10 ng/mL) stimulated pSMAD3 formation, 1 hour compound incubation, read-out: BEAS2B pIC50 (converted). In a few lines: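 Phospho-SMAD3 was quantified by AlphaLISA in lysates of human lung epithelial BEAS-2B cells. Compound was added 1 h (37 °C, HEPES/BSA-supplemented HBSS) before a 30 min challenge with 10 ng/mL TGF-β. Values are pIC50 relative to stimulated cells without compound.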

A value given as a limit tells only on which side of the number the result lay.

Turning to `Fc1ccc(Cl)cc1-c1n[nH]cc1-c1ccc2ncc(-c3nnc4n3CCN4)cc2n1` [Compound 1-110, 2-[3-(5-chloro-2-fluoro-phenyl)-1H-pyrazol-4-yl]-7-(6,7-dihydro-5H-imidazo[2,1-c][1,2,4]triazol-3-yl)-1,5-naphthyridine], the Ki in test [1] was 0.0398 to 0.316 nM. Also, the IC50 in test [2] was 200 to 1260 nM.
`Fc1ccc(Cl)cc1-c1n[nH]cc1-c1ccc2ncc(-c3cn(Cc4c[nH]cn4)nn3)cc2n1` [Compound 1-111, 2-[3-(5-chloro-2-fluoro-phenyl)-1H-pyrazol-4-yl]-7-[1-(1H-imidazol-4-ylmethyl)triazol-4-yl]-1,5-naphthyridine]: in test [1], the Ki was at most 0.0316 nM. For the same compound, the IC50 in test [2] was 25.1 to 158 nM.
On to `Fc1ccc(Cl)cc1-c1n[nH]cc1-c1ccc2ncc(-c3cn(Cc4cnc5c(c4)CNCC5)nn3)cc2n1` [Compound 1-112, 2-[3-(5-chloro-2-fluoro-phenyl)-1H-pyrazol-4-yl]-7-[1-(5,6,7,8-tetrahydro-1,6-naphthyridin-3-ylmethyl)triazol-4-yl]-1,5-naphthyridine], for which the Ki in test [1] was 0.0398 to 0.316 nM. Further, the IC50 in test [2] was 25.1 to 158 nM.
As for `Fc1ccc(Cl)cc1-c1n[nH]cc1-c1ccc2ncc(-c3ncn4c3CNCC4)cc2n1` [Compound 1-113, 2-[3-(5-chloro-2-fluoro-phenyl)-1H-pyrazol-4-yl]-7-(5,6,7,8-tetrahydroimidazo[1,5-a]pyrazin-1-yl)-1,5-naphthyridine], in test [1], the Ki was 0.0398 to 0.316 nM. In addition, in test [2], the IC50 is 25.1 to 158 nM.
`Fc1ccc(Cl)cc1-c1n[nH]cc1-c1ccc2ncc(-c3ncc4n3CCNC4)cc2n1` [Compound 1-114, 2-[3-(5-chloro-2-fluoro-phenyl)-1H-pyrazol-4-yl]-7-(5,6,7,8-tetrahydroimidazo[1,5-a]pyrazin-3-yl)-1,5-naphthyridine]: the Ki in test [1] was 0.0398 to 0.316 nM. Besides, the IC50 in test [2] was 25.1 to 158 nM.
Regarding `Fc1ccc(Cl)cc1-c1n[nH]cc1-c1ccc2ncc(-c3[nH]nc4c3CNCC4)cc2n1` [Compound 1-115, 2-[3-(5-chloro-2-fluoro-phenyl)-1H-pyrazol-4-yl]-7-(4,5,6,7-tetrahydro-2H-pyrazolo[4,3-c]pyridin-3-yl)-1,5-naphthyridine], the Ki in test [1] was 0.0398 to 0.316 nM. In addition, the IC50 in test [2] is 25.1 to 158 nM.
On to `Fc1ccc(Cl)cc1-c1n[nH]cc1-c1ccc2ncc(-c3cn4c(n3)CNCC4)cc2n1` [Compound 1-116, 2-[3-(5-chloro-2-fluoro-phenyl)-1H-pyrazol-4-yl]-7-(5,6,7,8-tetrahydroimidazo[1,2-a]pyrazin-2-yl)-1,5-naphthyridine], for which, in test [1], the Ki is 0.0398 to 0.316 nM. Further, the IC50 in test [2] is 25.1 to 158 nM.
In the case of `Fc1ccc(Cl)cc1-c1n[nH]cc1-c1ccc2ncc(NCC3CCCNC3)cc2n1` (stereo not shown) [Compound 1-117, 6-[3-(5-chloro-2-fluoro-phenyl)-1H-pyrazol-4-yl]-N-(3-piperidylmethyl)-1,5-naphthyridin-3-amine], in test [1], the Ki is 0.398 to 3.16 nM. Moreover, the IC50 in test [2] is 200 to 1260 nM.
For the compound `Fc1ccc(Cl)cc1-c1n[nH]cc1-c1ccc2ncc(-c3nnn4c3NCCC4)cc2n1` [Compound 1-118, 2-[3-(5-chloro-2-fluoro-phenyl)-1H-pyrazol-4-yl]-7-(4,5,6,7-tetrahydrotriazolo[1,5-a]pyrimidin-3-yl)-1,5-naphthyridine], the Ki in test [1] was 0.0398 to 0.316 nM. For the same compound, in test [2], the IC50 was at most 20 nM.
In the case of `Fc1ccc(Cl)cc1-c1n[nH]cc1-c1ccc2ncc(-c3nc(C(F)(F)F)n4c3CNCC4)cc2n1` [Compound 1-119, 2-[3-(5-chloro-2-fluoro-phenyl)-1H-pyrazol-4-yl]-7-[3-(trifluoromethyl)-5,6,7,8-tetrahydroimidazo[1,5-a]pyrazin-1-yl]-1,5-naphthyridine], the Ki in test [1] was 0.398 to 3.16 nM. Further, the IC50 in test [2] is 25.1 to 158 nM.
On the same counts, the results for `Cc1nn2c(c1-c1cnc3ccc(-c4c[nH]nc4-c4cc(Cl)ccc4F)nc3c1)NCCC2` [Compound 1-120, 2-[3-(5-chloro-2-fluoro-phenyl)-1H-pyrazol-4-yl]-7-(2-methyl-4,5,6,7-tetrahydropyrazolo[1,5-a]pyrimidin-3-yl)-1,5-naphthyridine] are 0.398 to 3.16 nM and 25.1 to 158 nM.
For `Fc1ccc(Cl)cc1-c1n[nH]cc1-c1ccc2ncc(-c3[nH]nc4c3CCNC4)cc2n1` [Compound 1-121, 2-[3-(5-chloro-2-fluoro-phenyl)-1H-pyrazol-4-yl]-7-(4,5,6,7-tetrahydro-2H-pyrazolo[3,4-c]pyridin-3-yl)-1,5-naphthyridine] the same measures were 0.0398 to 0.316 nM and 25.1 to 158 nM.
On to `CC1CN(c2cnc3ccc(-c4c[nH]nc4-c4cc(Cl)ccc4F)nc3c2)CC(C)N1CCN` (stereo not shown) [Compound 1-122, 2-[4-[6-[3-(5-chloro-2-fluoro-phenyl)-1H-pyrazol-4-yl]-1,5-naphthyridin-3-yl]-2,6-dimethyl-piperazin-1-yl]ethanamine], for which, in test [1], the Ki was 0.0398 to 0.316 nM. In test [2], the IC50 is 25.1 to 158 nM.
On the same counts, the results for `Fc1ccc(Cl)cc1-c1n[nH]cc1-c1ccc2ncc(-c3nnn4c3NCC4)cc2n1` [Compound 1-123, 2-[3-(5-chloro-2-fluoro-phenyl)-1H-pyrazol-4-yl]-7-(5,6-dihydro-4H-imidazo[1,2-c]triazol-3-yl)-1,5-naphthyridine] are 0.0398 to 0.316 nM and 25.1 to 158 nM.
Take `Fc1ccc(Cl)cc1-c1n[nH]cc1-c1ccc2ncc(-c3cnc4n3CCCN4)cc2n1` [Compound 1-124, 2-[3-(5-chloro-2-fluoro-phenyl)-1H-pyrazol-4-yl]-7-(5,6,7,8-tetrahydroimidazo[1,2-a]pyrimidin-3-yl)-1,5-naphthyridine]: the Ki in test [1] was 0.0398 to 0.316 nM. Also, in test [2], the IC50 is 25.1 to 158 nM.
On to `Fc1ccc(Cl)cc1-c1n[nH]cc1-c1ccc2ncc(-c3[nH]nc4c3CCN4)cc2n1` [Compound 1-125, 2-[3-(5-chloro-2-fluoro-phenyl)-1H-pyrazol-4-yl]-7-(2,4,5,6-tetrahydropyrrolo[2,3-c]pyrazol-3-yl)-1,5-naphthyridine], for which, in test [1], the Ki is 0.0398 to 0.316 nM. In addition, the IC50 in test [2] was 25.1 to 158 nM.
Take `COC(=O)N1CCc2nnc(-c3cnc4ccc(-c5c[nH]nc5-c5cc(Cl)ccc5F)nc4c3)cc2C1` [Compound 1-126, methyl 3-[6-[3-(5-chloro-2-fluoro-phenyl)-1H-pyrazol-4-yl]-1,5-naphthyridin-3-yl]-7,8-dihydro-5H-pyrido[4,3-c]pyridazine-6-carboxylate]: the Ki in test [1] is 0.0398 to 0.316 nM. Also, the IC50 in test [2] was 25.1 to 158 nM.
In the case of `CCOC(=O)CNCCn1cc(-c2cnc3ccc(-c4c[nH]nc4-c4cc(Cl)ccc4F)nc3c2)cn1` [Compound 1-127, ethyl 2-[2-[4-[6-[3-(5-chloro-2-fluoro-phenyl)-1H-pyrazol-4-yl]-1,5-naphthyridin-3-yl]pyrazol-1-yl]ethylamino]acetate], the Ki in test [1] is at most 0.0316 nM. Besides, the IC50 in test [2] was 200 to 1260 nM.
Consider `Fc1ccc(Cl)cc1-c1n[nH]cc1-c1ccc2ncc(N3CCn4nc(N5CCNCC5)cc4C3)cc2n1` [Compound 1-128, 2-[3-(5-chloro-2-fluoro-phenyl)-1H-pyrazol-4-yl]-7-(2-piperazin-1-yl-6,7-dihydro-4H-pyrazolo[1,5-a]pyrazin-5-yl)-1,5-naphthyridine], for which the Ki in test [1] is 0.0398 to 0.316 nM. The IC50 in test [2] is 200 to 1260 nM.
As to `Fc1ccc(Cl)cc1-c1n[nH]cc1-c1ccc2ncc(-c3ncc4n3CCN4)cc2n1` [Compound 1-129, 2-[3-(5-chloro-2-fluoro-phenyl)-1H-pyrazol-4-yl]-7-(2,3-dihydro-1H-imidazo[1,2-c]imidazol-5-yl)-1,5-naphthyridine], the Ki in test [1] was 0.398 to 3.16 nM. For the same compound, the IC50 in test [2] is 200 to 1260 nM.
